# How the values were obtained:
# [1] = tested on: AML graft (human CD45+CD33+ cells); assay: AML xenograft efficacy, 2.5 mg/kg IP twice daily; assay type: in vivo, NOD/SCID mice; details: for In vivo Efficacy (% reduction) BM / In vivo Efficacy (% reduction) RF: AML cells vs vehicle; for Response: class by % reduction of AML cells in RF or BM
# Excerpt: Preparation of Test Article for Dosing: For in vivo Compound D dosing, Compound D was formulated immediately prior to each dose following the protocol below.
# (§1) Formulation: 5% NMP/45% polyethylene glycol (PEG) 400/50% Saline; NMP—Catalogue no. 69118 (new no. M79603-1L), Fluka; PEG400—Catalogue no. 81172-1L, Fluka; Saline—0.9% sodium chloride.
# (§2) Preparation: Weigh the desired amount of compound in glass vial. Add NMP and vortex. Make sure that entire compound is wet. Add PEG400 and vortex until clear solution without particulates. Add saline slowly and mix thoroughly for about a minute with hand held homogenizer with disposable tip.
# Compound Administration: Compound D is dosed via the intraperitoneal route. Vehicle and Compound D are dosed in a volume of 2.5 mL/kg for twice daily (BID) dosing (if testing once daily [QD] dosing, use a dose volume of 5 mL/kg). Recommend a twice daily protocol with a 3-hour separation between the doses.
# Intrafemoral Transplantation: One day prior to transplantation, NOD/SCID mice were preconditioned by sublethally irradiating (275 cGy) followed by injection with anti-CD122 antibody (200 μg/mouse) to deplete residual host natural killer (NK) cells. On the day of transplantation, viably frozen AML bulk cells (see Section 6.2.1.2) were thawed, counted, and transplanted intrafemorally into the preconditioned mice at a dose of 5×10^6 cells/mouse in a total volume of 30 μL phosphate buffered saline.
# Treatment and Assay Procedure: At Day 21 post AML transplantation, mice were randomly grouped and dosed with either Compound D at 2.5 mg/kg or vehicle (5% N-methyl-2-pyrrolidone [NMP]/45% polyethylene glycol [PEG] 400/50% saline), intraperitoneally twice daily in a dose volume of 50 μL for 4 weeks. All animals were euthanized at scheduled termination (1 day after the last treatment) and bone marrow was collected from the right femur (injected bone marrow) and the left femur and left and right tibia (non-injected bone marrow). Cells isolated from injected or non-injected bone marrow were analyzed by flow cytometry to assess AML engraftment, and were viably frozen for future secondary engraftment analysis.
# Cells harvested from injected and non-injected bone marrow were stained with mouse anti human antibodies as indicated in Section 6.2.1.3. After staining, washed cells were run on an LSRII flow cytometer (BD, USA) with 10,000 to 20,000 events collected for each sample. Collected data were analyzed by FlowJo software (TreeStar, USA) to assess AML engraftment levels in different tissues as determined by the percentage of human CD45+CD33+ cells.
# Immune-deficient NOD/SCID mice were sublethally irradiated (225cGy) and treated with anti-CD122 antibody to eradicate residual mouse NK cells the day before AML implantation. Primary AML cells from each patient were intrafemorally injected into the mouse right femur at the cell dose 5×10^6 per mouse, with 10 mice transplanted per sample. Compound D and vehicle treatment was initiated at day 21 post transplantation. Compound D was administered at 2.5 mg/kg, intraperitoneally (IP) twice a day at 3 hours apart for 4 weeks. Before each treatment, Compound D was freshly dissolved into the solution. Vehicle was the same solution without Compound D compound and given to the control-treated mice at same volume (50 μL/mouse) with the same therapeutic schedule as Compound D treatment. For each patient sample, each treated group had 5 mice.
# After treatment finished, cells were harvested from both injected right femur (RF) and non-injected bone marrow (BM, including left femur, 2 tibias), and stained with human antibodies to assess the engraftment levels of AML. Antibodies used for staining included: Mouse anti-human CD45-APC, CD15-FITC, CD34-APC7, CD38-PC7 (BD Biosciences, USA), CD14-PE, CD33-PC5 (Beckman Coulter, USA), CD19-V450, CD19-AF700, CD11b-APC7, CD34-BV421 (BD Biosciences, USA), and propidium iodide (PI; Invitrogen, USA).
# [2] = assay type: physicochemical
# Excerpt: as §1, §2
# [3] = three samples with high LSC17 score
compound,measurement,setting,value
"O=C1CCC(N2Cc3cc(CNC(=O)C(F)(F)c4ccc(Cl)cc4)ccc3C2=O)C(=O)N1 (stereo not drawn) [Compound D, 2-(4-chlorophenyl)-N-((2-(2,6-dioxopiperidin-3-yl)-1-oxoisoindolin-5-yl)methyl)-2,2-difluoroacetamide]",response of samples with low LSC17 scores,"[1]; 7 of the low LSC17 samples, more than 50% reduction",responded very well
same,human CD45+ leukemia graft in RF and BM,[1]; AML 100348 (low LSC17),significant response
same,paralyzation or death,"[1]; AML Patient 90668, 5 million cells per mouse",did not rescue these mice from paralyzation or death
same,"number of high LSC17 samples with more than 80% leukemia reduction, BM",[1]; BM,17
same,"number of samples with 50 to 75% reduction (group 2), BM",[1]; BM,6
same,"number of samples with >80% reduction (group 1), BM",[1]; BM,14
same,In vivo Efficacy (% reduction) BM,[1]; Patient 598,95%
same,In vivo Efficacy (% reduction) RF,[1]; Patient 598,46%
same,Response,[1]; Patient 598,R (R = >60%)
same,In vivo Efficacy (% reduction) BM,[1]; Patient 90191,−250%
same,In vivo Efficacy (% reduction) RF,[1]; Patient 90191,−21%
same,Response,[1]; Patient 90191,NR (NR = <30%)
same,In vivo Efficacy (% reduction) BM,[1]; Patient 100348,90%
same,In vivo Efficacy (% reduction) RF,[1]; Patient 100348,86%
same,Response,[1]; Patient 100348,R (R = >60%)
same,In vivo Efficacy (% reduction) BM,[1]; Patient 110484,96%
same,In vivo Efficacy (% reduction) RF,[1]; Patient 110484,73%
same,Response,[1]; Patient 110484,R (R = >60%)
same,In vivo Efficacy (% reduction) BM,[1]; Patient 110500,67%
same,In vivo Efficacy (% reduction) RF,[1]; Patient 110500,72%
same,Response,[1]; Patient 110500,R (R = >60%)
same,"In Vivo Efficacy (Primary Mice) % AML cell reduction relative to Veh, BM",[1]; Patient 110625,99.9%
same,"In Vivo Efficacy (Primary Mice) % AML cell reduction relative to Veh, RE",[1]; Patient 110625,99.9%
same,In vivo Efficacy (% reduction) BM,[1]; Patient 120791,98%
same,In vivo Efficacy (% reduction) RF,[1]; Patient 120791,69%
same,Response,[1]; Patient 120791,R (R = >60%)
same,In vivo Efficacy (% reduction) BM,[1]; Patient 120846,26%
same,In vivo Efficacy (% reduction) RF,[1]; Patient 120846,9%
same,Response,[1]; Patient 120846,NR (NR = <30%)
same,In vivo Efficacy (% reduction) BM,[1]; Patient 120858,2%
same,In vivo Efficacy (% reduction) RF,[1]; Patient 120858,0%
same,Response,[1]; Patient 120858,NR (NR = <30%)
same,percent and number of CD34+ primitive cells,[1]; Patient 120860,not reduced
same,"numbers of AML cells, injected femur",[1]; Patient 120860 (low LSC17),did not reduce the numbers of AML cells
same,"number of AML cells, non-injected BM","[1]; Patient 120860 (low LSC17), vs vehicle",significantly reduced
same,In vivo Efficacy (% reduction) BM,[1]; Patient 120860,20%
same,In vivo Efficacy (% reduction) RF,[1]; Patient 120860,1%
same,Response,[1]; Patient 120860,NR (NR = <30%)
same,In vivo Efficacy (% reduction) BM,[1]; Patient 120899,67%
same,In vivo Efficacy (% reduction) RF,[1]; Patient 120899,13%
same,Response,[1]; Patient 120899,R (R = >60%)
same,In vivo Efficacy (% reduction) BM,[1]; Patient 121020,52%
same,In vivo Efficacy (% reduction) RF,[1]; Patient 121020,42%
same,Response,[1]; Patient 121020,PR (PR = 30%-60%)
same,"In Vivo Efficacy (Primary Mice) % AML cell reduction relative to Veh, BM",[1]; Patient 130311,99.6%
same,"In Vivo Efficacy (Primary Mice) % AML cell reduction relative to Veh, RE",[1]; Patient 130311,99.8%
same,In vivo Efficacy (% reduction) BM,[1]; Patient 130578,73%
same,In vivo Efficacy (% reduction) RF,[1]; Patient 130578,61%
same,Response,[1]; Patient 130578,R (R = >60%)
same,In vivo Efficacy (% reduction) BM,[1]; Patient 130695,86%
same,In vivo Efficacy (% reduction) RF,[1]; Patient 130695,52%
same,Response,[1]; Patient 130695,R (R = >60%)
same,In vivo Efficacy (% reduction) BM,[1]; Patient 130712,56%
same,In vivo Efficacy (% reduction) RF,[1]; Patient 130712,17%
same,Response,[1]; Patient 130712,PR (PR = 30%-60%)
same,"In Vivo Efficacy (Primary Mice) % AML cell reduction relative to Veh, BM",[1]; Patient 130826,98.1%
same,"In Vivo Efficacy (Primary Mice) % AML cell reduction relative to Veh, RE",[1]; Patient 130826,95.0%
same,In vivo Efficacy (% reduction) BM,[1]; Patient 130926,85%
same,In vivo Efficacy (% reduction) RF,[1]; Patient 130926,70%
same,Response,[1]; Patient 130926,R (R = >60%)
same,In vivo Efficacy (% reduction) BM,[1]; Patient 140171,28%
same,In vivo Efficacy (% reduction) RF,[1]; Patient 140171,4%
same,Response,[1]; Patient 140171,NR (NR = <30%)
same,"In Vivo Efficacy (Primary Mice) % AML cell reduction relative to Veh, BM",[1]; Patient 150238,98.7%
same,"In Vivo Efficacy (Primary Mice) % AML cell reduction relative to Veh, RE",[1]; Patient 150238,95.2%
same,"number of high LSC17 samples with more than 80% leukemia reduction, RF",[1]; RF,13
same,"number of samples with 50 to 75% reduction (group 2), RF",[1]; RF,10
same,"number of samples with >80% reduction (group 1), RF",[1]; RF,Seventeen
same,"number of samples with less than 25% reduction (group 3), RF",[1]; RF,9
same,"response, secondary and relapsed vs de novo AML",[1]; RF and BM,responses similar to the cells from de novo AML patients
same,samples considered responders or partial-responders,"[1]; RF and BM, all samples",29 out of 35 samples
same,AML samples with significant effect,"[1]; Section 6.2.6, 4 weeks",significant effects on 4 out of 5 AML samples
same,engrafted samples with significant and dramatic responses,"[1]; Section 6.3, 31 patient samples tested",24 out of 28
same,responder samples,[1]; among 7 AML samples incl. 2 pilot samples,5 samples were responders
same,"samples that did not respond at all, injected RF",[1]; group 3,4 out of 9
same,"samples with no AML reduction, BM",[1]; group 3,3 out of 6
same,"response, Flt3-ITD vs wild-type Flt3 in cytogenetically normal AML","[1]; mouse, in vivo",slightly less response to Compound D in injected RF but similar response in BM
same,"response, abnormal vs normal karyotypes","[1]; mouse, in vivo",better response
same,AML cells in RF and BM,[1]; [3],completely eradicated to undetectable levels
same,absolute numbers of primitive CD34+ cells,[1]; [3],very low and undetectable levels
same,stability in formulation,[2],not stable in the formulation over time
